Source: patent US10987336B2, “Method of preventing or treating side effect of tumor therapy” (priority 2018, dated 2021)
Where two headings read alike, the source gives them in different places.

Tests used:
HUVEC cells [1] = assay: CCK-8 cell survival: ameliorating proliferative toxicity of VEGF/VEGFR inhibitor (Examples 4-15); type: cell-based; conditions: agent 100 μM, 24-48 h
HaCaT cells = type: cell-based, human
HUVEC cells [2] = type: cell-based; conditions: Sorafenib (V1) 10 μM + agent 50 μM, 24 hours, CCK-8
Calmodulin (CaM) = assay: Western Blot expression level in HaCaT cells (Example 147); type: cell-based, human; conditions: 24 hours, compared with the control group
Experimental: In the present application, compared effect of the nitric oxide releasing agent with calcium channel blocker on expression levels of calmodulin and calreticulin in HaCat cell The cultured HaCaT cells were digested, suspended, counted, and seeded into a 6-well plate with 200,000 cells per well. After the cells were attached, a nitric oxide releasing agent (or calcium channel blocker) solution was added to achieve a particular final concentration. A basic medium was added into the control group. At 24 hours after administration of the nitric oxide releasing agent (or calcium channel blocker), RIPA lysate [MUT], Beyotime Biotechnology) was used to extract protein. The change of expressions of calmodulin and calreticulin was determined by Western Blot. […] Image Lab was used to analyze the gray value results. GraphPad Prism 6.0 Software and t-test were used to carry out a statistic analysis of the results and plot a graph. Of those, represents P<0.001, ** represents P<0.01, * represents P<0.05, indicating a significant difference as compared with the corresponding control group; as statistically analyzed by using t-test.

[3] = HaCaT, Sorafenib (V1) 10 μM + agent 50 μM, 24 hours, CCK-8

| SMILES | Cell Survival Rate (viable cells increased vs VEGF/VEGFR inhibitor group) (HUVEC cells [1]; Regorafenib 10 μM) | Cell Survival Rate (viable cells increased vs VEGF/VEGFR inhibitor group) (HUVEC cells [1]; Sorafenib 5 μM) | Cell Survival Rate (viable cells increased vs VEGF/VEGFR inhibitor group) (HUVEC cells [1]; Sunitinib 5 μM) | Cell Survival Rate (viable cells increased vs VEGF/VEGFR inhibitor group) (HUVEC cells [1]; Apatinib 10 μM) | Cell Survival Rate (viable cells increased vs VEGF/VEGFR inhibitor group) (HUVEC cells [1]; Axitinib 10 μM) | Cell Survival Rate (viable cells increased vs VEGF/VEGFR inhibitor group) (HUVEC cells [1]; Lenvatinib Mesylate 10 μM) | Cell Survival Rate (viable cells increased vs VEGF/VEGFR inhibitor group) (HUVEC cells [1]; Nintedanib Esylate 10 μM) | Cell Survival Rate (viable cells increased vs VEGF/VEGFR inhibitor group) (HUVEC cells [1]; Pazopanib Hydrochloride 10 μM) | Cell Survival Rate (viable cells increased vs VEGF/VEGFR inhibitor group) (HUVEC cells [1]; Thalidomide 10 μM) | also measured |
| --- | --- | --- | --- | --- | --- | --- | --- | --- | --- | --- |
| NCCN(CCN)/[N+]([O-])=N/O [3,3-Bis (aminoethyl)-1-hydroxy-2-oxo-1-triazene] | Increased by 15-20% | Increased by 35-45% | Increased by 20-30% |  |  |  |  |  |  |  |
| N=c1c[n+](N2CCOCC2)[n-]o1 [3-morpholinosydnonimine] | Increased by 15-20% | Increased by 30-40% | Increased by 10-20% |  |  |  |  |  |  |  |
| CC(C)CCON=O [Isoamyl Nitrite] | Increased by 15-20% | Increased by 30-40% | Increased by 20-25% | Increased by 40-50% | Increased by 20-30% | Increased by 30-50% | Increased by 30-50% | Increased by 20-30% | Increased by 20-30% |  |
| O=[N+]([O-])O[C@H]1CO[C@H]2[C@@H]1OC[C@H]2O[N+](=O)[O-] [Isosorbide Dinitrate] |  |  |  |  |  |  |  |  |  | Cell Survival Rate (percentage of viable cells increased as compared to the VEGF/VEGFR inhibitor group) (HaCaT cells; [3]): by 20-50% |
| O=[N+]([O-])O[C@@H]1CO[C@H]2[C@@H]1OC[C@@H]2O [Isosorbide Mononitrate] | Increased by 20-30% | Increased by 30-35% | Increased by 20-25% |  |  |  |  |  |  | Cell Survival Rate (percentage of viable cells increased as compared to the VEGF/VEGFR inhibitor group) (HUVEC cells [2]): by 20-40%; Cell Survival Rate (percentage of viable cells increased as compared to the VEGF/VEGFR inhibitor group) (HaCaT cells; [3]): by 20-50% |
| CCOC(=O)[N-]c1cn(N2CCOCC2)n[o+]1 [Molsidomine] | Increased by 20-30% | Increased by 30-40% | Increased by 20-30% | Increased by 40-50% | Increased by 20-30% | Increased by 30-50% | Increased by 30-50% | Increased by 20-30% | Increased by 20-30% |  |
| O=C(NCCO[N+](=O)[O-])c1cccnc1 [Nicorandil] | Increased by 20-30% | Increased by 50-60% | Increased by 10-20% | Increased by 40-50% | Increased by 20-30% | Increased by 30-50% | Increased by 30-50% | Increased by 20-30% | Increased by 20-30% |  |
| O=[N+]([O-])OCC(CO[N+](=O)[O-])O[N+](=O)[O-] [Nitroglycerin] |  |  |  |  |  |  |  |  |  | Cell Survival Rate (percentage of viable cells increased as compared to the VEGF/VEGFR inhibitor group) (HUVEC cells [2]): by 25-50%; Cell Survival Rate (percentage of viable cells increased as compared to the VEGF/VEGFR inhibitor group) (HaCaT cells): by 20-40% |
| CCCc1nn(C)c2c(=O)[nH]c(-c3cc(S(=O)(=O)N4CCN(C)CC4)ccc3OCC)nc12 [Sildenafil] | No significant change | No significant change | No significant change |  |  |  |  |  |  |  |
| COc1ccc([C@@H]2Sc3ccccc3N(CCN(C)C)C(=O)[C@@H]2OC(C)=O)cc1 [diltiazem] |  |  |  |  |  |  |  |  |  | expression level of calmodulin (CaM), gray value analysis (Calmodulin (CaM)): decreased significantly |
